From patent US20220332708A1 (Cytokinetics, Inc., priority 2021, published 2022)

These compounds were tested on Bovine cardiac myofibrils (assay: Dose-dependent myofibril ATPase modulation (calcium-buffered, pyruvate kinase and lactate dehydrogenase-coupled ATPase assay at pCa25)). Settings: concentration at which ATPase activity was 1.4-fold higher than the bottom of the dose curve, mean of a minimum of two independent tests.
Assay type: biochemical
Protocol: In Vitro Model of Dose-Dependent Myofibril ATPase Modulation
Dose responses were measured using a calcium-buffered, pyruvate kinase and lactate dehydrogenase-coupled ATPase assay containing the following reagents (concentrations expressed are final assay concentrations): Potassium PIPES (12 mM), MgCl2 (2 mM), ATP (1 mM), DTT (1 mM), BSA (0.1 mg/ml), NADH (0.5 mM), PEP (1.5 mM), pyruvate kinase (4 U/ml), lactate dehydrogenase (8 U/ml), and antifoam (90 ppm). The pH was adjusted to 6.80 at 22° C. by addition of potassium hydroxide. Calcium levels were controlled by a buffering system containing 0.6 mM EGTA and varying concentrations of calcium, to achieve a free calcium concentration of 1×10^−4 M to 1×10^−8 M.
Bovine cardiac myofibrils were obtained by homogenizing the appropriate tissue in the presence of detergent. Such treatment removes membranes and majority of soluble cytoplasmic proteins but leaves intact cardiac sarcomeric acto-myosin apparatus. Concentrations of myofibrils were adjusted to achieve the necessary rate of ATP hydrolysis (typically 0.25-1.0 mg/ml).
Chemical entity dose responses were measured at the calcium concentration corresponding to 25% of maximal ATPase activity (pCa25), so a preliminary experiment was performed to test the response of the ATPase activity to free calcium concentrations in the range of 1×10^−4 M to 1×10^−8 M. Subsequently, the assay mixture was adjusted to the pCa25. Assays were performed by first preparing a dilution series of test chemical entity, each with an assay mixture containing potassium Pipes, MgCl2, BSA, DTT, pyruvate kinase, lactate dehydrogenase, myofibrils, antifoam, EGTA, CaCl2), and water. The assay was started by adding an equal volume of solution containing potassium Pipes, MgCl2, BSA, DTT, ATP, NADH, PEP, antifoam, and water. ATP hydrolysis was monitored by absorbance at 340 nm. The resulting dose response curve was fit by the 4 parameter equation y=Bottom+((Top−Bottom)/(1+((EC50/X)^Hill))). […] AC1.4 values reported in the table below are mean values based on a minimum of two independent tests.
With `Cc1[nH]c(S(=O)(=O)N[C@H]2COc3cc(F)c(Cl)cc3C2)cc1C(=O)N1CC(C)(C#N)C1` [Compound 80, (R)-N-(6-chloro-7-fluorochroman-3-yl)-4-(3-cyano-3-methylazetidine-1-carbonyl)-5-methyl-1H-pyrrole-2-sulfonamide] the AC1.4 was 13.1993 µM.
In the case of `Cc1[nH]c(S(=O)(=O)N[C@@H]2CCc3c([nH]c4ccccc34)C2)cc1C(=O)N1CCC1` [Compound 41, (R)-4-(azetidine-1-carbonyl)-5-methyl-N-(2,3,4,9-tetrahydro-1H-carbazol-2-yl)-1H-pyrrole-2-sulfonamide], the AC1.4 is reported as 0.2434 µM.
In the case of `CNc1cc2nc(C)[nH]c(=O)c2cc1S(=O)(=O)NC(C)Cc1[nH]c2ccccc2c1C` (stereo not shown) [Compound 29, 2-Methyl-N-(1-(3-methyl-1H-indo1-2-yl)propan-2-yl)-7-(methylamino)-4-oxo-3,4-dihydroquinazoline-6-sulfonamide], the AC1.4 is reported as 8.204 µM.
`C[C@@H]1C[C@@H](C)CN(c2ccc(NS(=O)(=O)c3ccc(N(C)C)c(C#N)c3)cn2)C1` (racemic) [Compound 2, 3-Cyano-4-(dimethylamino)-N-(6-(trans-3,5-dimethylpiperidin-l-yl)pyridin-3-yl)benzenesulfonamide] gave an AC1.4 of 12.21 µM.
`Cc1[nH]c(S(=O)(=O)N[C@@H]2COc3ccc(Cl)cc3[C@@H]2O)cc1C(=O)N1CC(C#N)C1` [Compound 74, N-((3R,4S)-6-chloro-4-hydroxychroman-3-yl)-4-(3-cyanoazetidine-1-carbonyl)-5-methyl-1H-pyrrole-2-sulfonamide] showed an AC1.4 of 0.5684 µM.
In the case of `CNc1cc2c(cc1S(=O)(=O)NCCCNc1ccccc1)c(=O)[nH]c(=O)n2C` [Compound 13, 1-Methyl-7-(methylamino)-2,4-dioxo-N-(3-(phenylamino)propyl)-1,2,3,4-tetrahydroquinazoline-6-sulfonamide], the AC1.4 is reported as 9.783 µM.
`Cc1[nH]c(S(=O)(=O)N[C@@H]2CCc3c([nH]c4ccccc34)C2)cc1C(=O)NCC(F)(F)F` [Compound 45, (R)-2-methyl-5-(N-(2,3,4,9-tetrahydro-1H-carbazol-2-yl)sulfamoyl)-N-(2,2,2-trifluoroethyl)-1H-pyrrole-3-carboxamide] gave an AC1.4 of 0.4627 µM.
`Cc1[nH]c(S(=O)(=O)N[C@H]2COc3ccc(Cl)cc3[C@@H]2O)cc1C(=O)N1CC(C)(C#N)C1` [Compound 75, N-((3S,4S)-6-chloro-4-hydroxychroman-3-yl)-4-(3-cyano-3-methylazetidine-1-carbonyl)-5-methyl-1H-pyrrole-2-sulfonamide] gave an AC1.4 of 0.5877 µM.
`Cc1[nH]c(S(=O)(=O)N[C@@H]2Cc3cc(F)c(Cl)cc3C2)cc1C(=O)N1CC(C(F)(F)F)C1` [Compound 93, (R)-N-(5-chloro-6-fluoro-2,3-dihydro-1H-inden-2-yl)-5-methyl-4-(3-(trifluoromethyl)azetidine-1-carbonyl)-1H-pyrrole-2-sulfonamide] showed an AC1.4 of 0.1626 µM.
`Cc1nn([C@H]2C[C@H](NS(=O)(=O)c3cc(C(=O)N4CC(C#N)C4)c(C)[nH]3)C2)cc1C(F)(F)F` [Compound 56, 4-(3-Cyanoazetidine-1-carbonyl)-5-methyl-N-((trans)-3-(3-methyl-4-(trifluoromethyl)-1H-pyrazol-1-yl)cyclobutyl)-1H-pyrrole-2-sulfonamide] gave an AC1.4 of 0.9674 µM.
In the case of `CNc1cc2c(cc1S(=O)(=O)N[C@H]1C[C@@H](Nc3ccc(F)cc3)C1)c(=O)[nH]c(=O)n2C` [Compound 25, N-((cis)-3-((4-fluorophenyl)amino)cyclobutyl)-1-methyl-7-(methylamino)-2,4-dioxo-1,2,3,4-tetrahydroquinazoline-6-sulfonamide], the AC1.4 is reported as 1.8965 µM.
`Cc1[nH]c(S(=O)(=O)N[C@@H]2COc3cc(F)c(Cl)cc3[C@@H]2O)cc1C(=O)N1CC(C)(C#N)C1` [Compound 78, N-((3R,4S)-6-chloro-7-fluoro-4-hydroxychroman-3-yl)-4-(3-cyano-3-methylazetidine-1-carbonyl)-5-methyl-1H-pyrrole-2-sulfonamide] gave an AC1.4 of 0.1127 µM.
`Cc1[nH]c(S(=O)(=O)N[C@@H]2CCc3c([nH]c4ccccc34)C2)cc1C(=O)NCCO` [Compound 39, (R)-N-(2-hydroxyethyl)-2-methyl-5-(N-(2,3,4,9-tetrahydro-1H-carbazol-2-yl)sulfamoyl)-1H-pyrrole-3-carboxamide] gave an AC1.4 of 1.722 µM.
Work on `Cc1[nH]c(S(=O)(=O)N[C@@H]2CCc3c([nH]c4ccccc34)C2)cc1C(=O)N1CC(C)(C)C1` [Compound 40, (R)-4-(3,3-dimethylazetidine-1-carbonyl)-5-methyl-N-(2,3,4,9-tetrahydro-1H-carbazol-2-yl)-1H-pyrrole-2-sulfonamide] yielded an AC1.4 of 0.0608 µM.
In the case of `Cc1cc(S(=O)(=O)N[C@@H]2COc3cc(F)c(Cl)cc3[C@@H]2O)cc(N2CC(C(F)F)C2)n1` [Compound 90], the AC1.4 is reported as 5.312 µM.
`Cc1[nH]c(S(=O)(=O)N[C@@H]2COc3cc(F)c(Cl)cc3[C@H]2O)cc1C(=O)N1CC(C)(C#N)C1` [Compound 77, N-((3R,4R)-6-chloro-7-fluoro-4-hydroxychroman-3-yl)-4-(3-cyano-3-methylazetidine-1-carbonyl)-5-methyl-1H-pyrrole-2-sulfonamide] showed an AC1.4 of 0.1896 µM.
For `CNC(=O)c1cc(S(=O)(=O)NC2CCc3c([nH]c4ccccc34)C2)[nH]c1C` (stereo not shown) [Compound 35, N,2-dimethyl-5-(N-(2,3,4,9-tetrahydro-1H-carbazol-2-yl)sulfamoyl)-1H-pyrrole-3-carboxamide], the AC1.4 was 6.2537 µM.
In the case of `Cc1[nH]c(S(=O)(=O)N[C@@H]2Cc3ccc(Cl)cc3C2)cc1C(=O)N1CC(C)(C#N)C1` [Compound 69, (R)-N-(5-chloro-2,3-dihydro-1H-inden-2-yl)-4-(3-cyano-3-methylazetidine-1-carbonyl)-5-methyl-1H-pyrrole-2-sulfonamide], the AC1.4 is reported as 0.166 µM.
`CNc1cc2c(cc1S(=O)(=O)NC1CCN(c3ccccc3)CC1)c(=O)[nH]c(=O)n2C` [Compound 10, 1-Methyl-7-(methylamino)-2,4-dioxo-N-(1-phenylpiperidin-4-yl)-1,2,3,4-tetrahydroquinazoline-6-sulfonamide] showed an AC1.4 of 2.8354 µM.
`Cc1nc2cc(OCCN3CCOCC3)c(S(=O)(=O)Nc3ccc(N4C[C@H](C)C[C@@H](C)C4)nc3)cc2c(=O)[nH]1` [Compound 6, N-(6-((3R,5R)-3,5-dimethylpiperidin-1-yl)pyridin-3-yl)-2-methyl-7-(2-morpholinoethoxy)-4-oxo-3,4-dihydroquinazoline-6-sulfonamide] was tested, and the AC1.4 was 0.7385 µM.
`Cc1[nH]c(S(=O)(=O)Nc2ccc(N3C[C@H](C)C[C@@H](C)C3)nc2)cc1C(=O)N1CC(F)(F)C1` [Compound 49, 4-(3,3-Difluoroazetidine-1-carbonyl)-N-(6-((3R,5R)-3,5-dimethylpiperidin-1-yl)pyridin-3-yl)-5-methyl-1H-pyrrole-2-sulfonamide] gave an AC1.4 of 2.9024 µM.
With `COc1cc2nc(C)[nH]c(=O)c2cc1S(=O)(=O)Nc1ccc(N2C[C@H](C)C[C@@H](C)C2)nc1` [Compound 7, N-(6-((3R,5R)-3,5-dimethylpiperidin-1-yl)pyridin-3-yl)-7-methoxy-2-methyl-4-oxo-3,4-dihydroquinazoline-6-sulfonamide] the AC1.4 was 1.3592 µM.
`Cc1nc2cc(C)c(S(=O)(=O)Nc3ccc(N4C[C@@H](C)C[C@H](C)C4)nc3)cc2c(=O)[nH]1` (racemic) [Compound 9, N-(6-((trans)-3,5-dimethylpiperidin-1-yl)pyridin-3-yl)-2,7-dimethyl-4-oxo-3,4-dihydroquinazoline-6-sulfonamide] showed an AC1.4 of 9.2363 µM.
In the case of `Cc1[nH]c(S(=O)(=O)N[C@]2(Cc3ccc(Cl)cc3)CCOC2)cc1C(=O)N1CC(C)(C#N)C1` (single isomer, unassigned) [Compound 63], the AC1.4 is reported as 0.081 µM.
With `Cc1[nH]c(S(=O)(=O)N[C@@H]2Cc3cc(Cl)c(Cl)cc3[C@H]2O)cc1C(=O)N1CC(C)(C#N)C1` (racemic) [Compound 99] the AC1.4 was 0.2635 µM.
`Cc1[nH]c(S(=O)(=O)NC23COc4cc(F)c(Cl)cc4C2C3)cc1C(=O)N1CC(C)(C#N)C1` (stereo not shown) [Compound 31, N-(6-chloro-5-fluoro-1,7b-dihydrocyclopropa[c]chromen-1a(2H)-yl)-4-(3-cyano-3-methylazetidine-1-carbonyl)-5-methyl-1H-pyrrole-2-sulfonamide] showed an AC1.4 of 1.274 µM.
Work on `Cc1[nH]c(S(=O)(=O)N[C@@H]2CCc3c([nH]c4ccccc34)C2)cc1C(=O)N1CCCC1` [Compound 46, (R)-5-methyl-4-(pyrrolidine-1-carbonyl)-N-(2,3,4,9-tetrahydro-1H-carbazol-2-yl)-1H-pyrrole-2-sulfonamide] yielded an AC1.4 of 0.2277 µM.
`CNc1cc2nc(C)[nH]c(=O)c2cc1S(=O)(=O)NC1CC(c2cccc(F)c2)C1` (stereo not shown) [Compound 24, N-(3-(3-fluorophenyl)cyclobutyl)-2-methyl-7-(methylamino)-4-oxo-3,4-dihydroquinazoline-6-sulfonamide] gave an AC1.4 of 5.6964 µM.
